Source: article PMC5840262, “Design, Synthesis and Evaluation of Branched RRWQWR-Based Peptides as Antibacterial Agents Against Clinically Relevant Gram-Positive and Gram-Negative Pathogens” (Frontiers in Microbiology, 2018)
Where “and” joins values, the source holds several entries; their conditions need not be identical. Identical values can stand only once. Like-named read-outs stand apart in the source and are kept apart here. Ends that are not written are not given here.

How the values were obtained:
[1] = tested on: Enterococcus faecalis ATCC 29212 (sensitive); type: cell-based
Protocol: (§1) We screened all five peptides against the ATCC reference strains and the clinical isolates according to Method M7-A7 of the National Committee for Clinical Laboratory Standards (CLSI, [2007]). The MIC50 and MBC values were determined using a broth microdilution and growth inhibition method previously reported by Leon-Calvijo et al. ([2015]), with some modifications (Wiegand et al., [2008]). Briefly, the MIC50 experiments comprised a liquid-inhibition growth assay in a sterile, untreated, 96-well flat-bottom tissue culture plate. The bacteria were cultured overnight n Mueller Hinton agar; three colonies were transferred to 8 mL of Mueller Hilton broth and incubated at 37°C until the mid-exponential phase of growth. The turbidity of the cultures was measured and adjusted spectrophotometrically to a McFarland standard of 0.5, and then diluted to a final concentration of 5 × 10^7 colony forming units (CFU) per well. Stock solutions (2,000 μM) of each test peptide were serially diluted to final concentrations (per well) of 200, 100, 50, 25, 12.5, and 6.25 μM. Each concentration was evaluated in duplicate and each assay was performed in triplicate.
(§2) Wells containing Mueller Hilton broth with bacterial inoculum only served as bacterial-growth controls. Additional controls included Mueller Hilton broth alone (as blank) and Mueller Hilton broth with ciprofloxacin (2 μg/mL; as positive control). The microplate was incubated for 24 h at 37°C, and growth inhibition was measured by monitoring the optical density at 620 nm (OD620). The MIC50 was defined as the peptide concentration at which bacterial growth was inhibited by 50%.
(§3) To determine the MBC, an aliquot from each well of the MIC50 assay was spread onto Mueller Hilton agar. After 18 h at 37°C, the concentration that inhibited bacterial growth was determined. Each of these tests was performed four times. MBC was defined as the lowest concentration of peptide at which the number of bacteria was reduced by 99.9% in vitro (European Committee for Antimicrobial Susceptibility Testing, [2000]).

[2] = tested on: Enterococcus faecalis ATCC 51575 (resistant); type: cell-based
Protocol: as §1, §2, §3

[3] = tested on: Pseudomonas aeruginosa ATCC 10145 (sensitive); type: cell-based
Protocol: as §1, §2, §3

[4] = tested on: Pseudomonas aeruginosa ATCC 27853 (resistant); type: cell-based
Protocol: as §1, §2, §3

[5] = tested on: Enterococcus faecium clinical isolate 1,462; type: cell-based
Protocol: (§4) For the clinical isolates, we used 20 different isolates from the Public Health Reference Laboratory collection of the Secretaría de Salud del Distrito (SdSD; Bogotá, Colombia). The samples were collected from June to December 2016. For each isolate, the patient parameters (age, gender and location) and the culture site were recorded for epidemiologic monitoring (Table 1). All isolates had been previously tested for antibiotic sensitivity at the Public Health Microbiology Laboratory using either the Phoenix™ system (Gram-positive) or the VITEK 2 system (Gram-negative).
as §1, §2, §3

[6] = tested on: Klebsiella pneumoniae clinical isolate 49,644; type: cell-based
Protocol: as §4, §1, §2, §3

[7] = tested on: Staphylococcus aureus clinical isolate 48,575; type: cell-based
Protocol: as §4, §1, §2, §3

[8] = tested on: Staphylococcus aureus clinical isolate 48,577; type: cell-based
Protocol: as §4, §1, §2, §3

[9] = tested on: human erythrocytes; assay: Hemolytic activity; type: cell-based
Protocol: Human erythrocytes collected from the blood samples of healthy humans were harvested by centrifugation for 7 min at 162 × g and washed three times in phosphate-buffered saline (PBS). The erythrocytes (2% hematocrit in PBS) were incubated with peptide molecules at several concentrations (6.25, 12.5, 25, 50, and 100 μM) for 2 h at 37°C. PBS was used as negative control for hemolysis, and sterile distilled water was used as positive control (100% hemolysis). The plate was subsequently centrifuged at 1,459 × g for 10 min at 4°C. Aliquots of the supernatant from each well (75 μL) were carefully transferred to a new sterile 96-well plate, and hemolytic activity was evaluated by measuring the OD492 using an Asys Expert Plus Microplate reader. The experiments were performed in duplicate, and hemolytic activity was calculated for each peptide.

[10] = tested on: Gram-negative ATCC strains (K. pneumoniae 13883 and 700603, P. aeruginosa 10145 and 27853)
Description: (§5) We determined the therapeutic index of each peptide, which we defined as the ratio of Maximum Hemolytic Activity (Hmax) to MIC50 (Hmax/MIC50).
The therapeutic index (TI) is a ratio of the toxic dose of a substance to its therapeutically-active dose and can be calculated different ways (e.g., LD50/ED50). Here, we calculated a TI value for each peptide against all the Gram-positive or the Gram-negative ATCC strains, by dividing its Hmax by its MIC50 for the given group of strains. […] Additionally, to make our quantitative analysis more robust [geometric mean (Khachatryan et al., [2017]) and fold values], we have included MIC50 values for these peptides against S. aureus and K. pneumoniae that we previously obtained using the same assay, the M7-A7 method of the National Committee for Clinical Laboratory Standards (Leon-Calvijo et al., [2015]).

[11] = tested on: clinical isolates of Gram-negative bacteria (Klebsiella pneumoniae, Pseudomonas aeruginosa); assay: Therapeutic index, Gram-negative clinical isolates
Description: as §5
The results are shown in Table 7 (Gram-positive) and Table 8 (Gram-negative). Regarding the Gram-positive bacteria, the palindromic, dimeric and tetrameric peptides were active chiefly against S. aureus. This trend was consistent with results of the experiments on the ATCC strains, in which these peptides were only active against the sensitive strain of the […] bacteria.

With “RRWQWR-NH2 [LfcinB (20–25), reference compound]” the MBC ([1]; E. faecalis ATCC 29212 sensitive, aliquots of MIC50 wells on Mueller Hinton agar, 18 h 37°C, 99.9% reduction) was greater than 200.0 µM, the MIC50 ([1]; E. faecalis ATCC 29212 sensitive, broth microdilution, Mueller Hinton broth, 24 h 37°C, OD620, concentration inhibiting growth by 50%) was greater than 200.0 µM and the MIC50 ([2]; E. faecalis ATCC 51575 resistant, broth microdilution, 24 h 37°C, OD620, 50% growth inhibition) was 198.0 µM. It also gave an MBC ([2]; E. faecalis ATCC 51575 resistant, plated on Mueller Hinton agar, 18 h 37°C, 99.9% reduction) greater than 200.0 µM, an MIC50 ([3]; P. aeruginosa ATCC 10145 sensitive, broth microdilution, 24 h 37°C, OD620, 50% growth inhibition) greater than 200.0 µM and an MBC ([3]; P. aeruginosa ATCC 10145 sensitive, plated on Mueller Hinton agar, 18 h 37°C, 99.9% reduction) greater than 200.0 µM. For the same substance, the MIC50 ([4]; P. aeruginosa ATCC 27853 resistant, broth microdilution, 24 h 37°C, OD620, 50% growth inhibition) was greater than 200.0 µM, the MBC ([4]; P. aeruginosa ATCC 27853 resistant, plated on Mueller Hinton agar, 18 h 37°C, 99.9% reduction) was greater than 200.0 µM and the MIC50 ([5]; E. faecium isolate 1,462, broth microdilution, 24 h 37°C, OD620, 50% growth inhibition) was greater than 100 µM. For the same substance, the MBC ([5]; E. faecium isolate 1,462, plated on agar 18 h 37°C, 99.9% reduction) was greater than 100 µM, the MIC50 ([6]; K. pneumoniae isolate 49,644, broth microdilution, 24 h 37°C, OD620, 50% growth inhibition) was greater than 100 µM and the MBC ([6]; K. pneumoniae isolate 49,644, plated on agar 18 h 37°C, 99.9% reduction) was greater than 100 µM. For the same substance, the MIC50 ([7]; S. aureus isolate 48,575, broth microdilution, 24 h 37°C, OD620, 50% growth inhibition) was 3.7 µM, the MBC ([7]; S. aureus isolate 48,575, plated on agar 18 h 37°C, 99.9% reduction) was greater than 100 µM and the MIC50 ([8]; S. aureus isolate 48,577, broth microdilution, 24 h 37°C, OD620, 50% growth inhibition) was 3.7 µM. For the same substance, the MBC ([8]; S. aureus isolate 48,577, plated on agar 18 h 37°C, 99.9% reduction) was greater than 100 µM, the “Hmax, maximum hemolytic activity” value ([9]; human red blood cells, 2% hematocrit in PBS, 2 h 37°C, OD492, peptide 6.25-100 μM, concentration of the maximum in the column beside, duplicate) was 7.1% and the “H50, concentration of peptide leading to 50% hemolysis” value ([9]; human red blood cells, 2 h 37°C, highest concentration tested 100 μM) was greater than 100 µM. For the same substance, the “Peptide concentration corresponding to Hmax” value ([9]; human red blood cells, 2 h 37°C, used as MHC in the therapeutic index) was 25 µM and 25.0 µM.

With RWQWRWQWR [PLS] the MBC ([1]; ATCC 29212, 18 h) was 100.0 µM, the MIC50 ([1]; ATCC 29212, 24 h) was 25.6 µM and the MBC ([2]; ATCC 51575, 18 h) was greater than 200.0 µM. The MIC50 ([2]; ATCC 51575, 24 h) was greater than 200.0 µM, the MBC ([3]; ATCC 10145, 18 h) was greater than 200.0 µM and the MIC50 ([3]; ATCC 10145, 24 h) was 99.7 µM. The MBC ([4]; ATCC 27853, 18 h) was greater than 200.0 µM, the MIC50 ([4]; ATCC 27853, 24 h) was 107.2 µM and the MBC ([5]; clinical isolate 1,462, 18 h) was 100.0 µM. It also gave an MIC50 ([5]; clinical isolate 1,462, 24 h) of 5.7 µM, an MBC ([6]; clinical isolate 49,644, 18 h) of 100.0 µM and an MIC50 ([6]; clinical isolate 49,644, 24 h) of 12.5 µM. For the same substance, the MBC ([7]; clinical isolate 48,575, 18 h) was 100.0 µM, the MIC50 ([7]; clinical isolate 48,575, 24 h) was 36.5 µM and the MBC ([8]; clinical isolate 48,577, 18 h) was 100.0 µM. For the same substance, the “H50, concentration of peptide leading to 50% hemolysis” value ([9]; red cells of human, 2 h) was greater than 100 µM, the “Gm, geometric mean of MIC50 values” [10] was 54.1 and the Gm, geometric mean of MIC50 values [11] was 17.4 µM.
